Test [1] relates to T-Rex 293 cell line SC cells lacking increased expression of progesterone receptor isoform B protein. The test can be described thus: Cellular growth inhibition assay, T-Rex 293 SC cells not exposed to doxycycline (no increased progesterone receptor isoform B expression), CellTiter-Glo. The class given is cell-based. The following applies: T-Rex 293 SC cells without doxycycline (no increased PR isoform B), 72 hours. As to the method: The SC cells were seeded on poly-D-lysine coated, black clear-bottom 384-well plates at 2500/well, in 25 μL Phenol Red Free Dulbecco's Modified Eagle Medium (DMEM) supplemented with 10% w/w charcoal-dextran treated fetal bovine serum (FBS) and 1% w/w pen-strep, with or without 10 ng/mL doxycycline. Pen-Strep is a commercially available mixture of penicillin G and streptomycin, which is used in mammalian cell culture media to prevent bacterial contamination. Phenol Red Free Dulbecco's Modified Eagle Medium (DMEM) supplemented with 10% w/w charcoal-dextran treated fetal bovine serum (FBS) and 1% w/w pen-strep, with or without 10 ng/mL doxycycline is herein referred to as Treatment Medium. Following seeding of cells in the plates, the plates were spun at 300×g for 30 seconds, then equilibrated to room temperature for 30 minutes, and then deposited in a humidified tissue culture incubator maintained at 37° C. with 5% CO2.
At 24 hours after seeding of the cells, dilutions of test compound were prepared in DMSO and dissolved in Treatment Medium, to achieve a final DMSO concentration of 0.5% w/w, thereby providing the Test Compound Solution. A 25 μL aliquot of the Test Compound Solution was added to cells in the well plates. An equal volume of a solution containing DMSO and Treatment Medium was used as a negative control. Following treatment of cells with Test Compound Solution or said equal volume of a solution containing DMSO and Treatment Medium, the plates were spun at 300×g for 30 seconds, and then left in an incubator for 72 hours.
At the end of the treatment duration, cell viability was quantified with CellTiter-Glo 2.0 reagent (Promega Cat #G9243). For this purpose, plates were equilibrated to room temperature for 30 minutes, and then 25 μL of CellTiter-Glo 2.0 reagent was added to cells in the plate wells. Plates were then agitated on a shaker for two minutes at 500 rpm and subsequently incubated at room temperature for 10 minutes. Following incubation, the plates were spun at 3000×g for 30 seconds, then sealed with an optical adhesive cover, and luminescence readings were measured with an EnVision Plate Reader (Perkin Elmer).
Data was normalized using zero luminescence for baseline. A four-parameter non-linear regression curve fit was applied to dose-response data in GraphPad Prism data analysis software to determine the half-maximal growth inhibitory concentration (GI50) for each test compound.

For another test, the target named is T1, BRD4-BD1 (Homo sapiens, UniProt O60885).
T1 construct: made in house; host or cells: T7 phage grown in an E. coli host derived from the BL21 strain
Description: Binding affinity to BRD4-BD1 (bromoKdELECT assay). The following applies: 11-point 3-fold dilution series.

The target of another test is T2, BRD4-BD2 (Homo sapiens, UniProt O60885).
T2 construct: made in house; host or cells: T7 phage grown in an E. coli host derived from the BL21 strain
Description: Binding affinity to BRD4-BD2 (bromoKdELECT assay). The note with it: 11-point 3-fold dilution series.

The term GI50 denotes the concentration at which growth is held to half of that of the control. The low end stands for more potent growth inhibition, the high end for less potent growth inhibition. In general, Kd refers to the concentration at which binding is half-saturated.

In test [1], `CCS(=O)(=O)Nc1ccc(Oc2cccc(OC3CCC4(CC3)CCN(c3ncc(C(=O)N[C@H]5C(C)(C)[C@H](Oc6ccc(C#N)c(Cl)c6)C5(C)C)cn3)CC4)c2)c(-c2cn(C)c(=O)c3[nH]ccc23)c1` [Compound I-45] had a 50% growth inhibitory concentration (GI50) greater than 3000 nM. Consider `Cn1cc(-c2cc(C(C)(C)O)ccc2Oc2cccc(N3CC(N4CCN(c5ncc(C(=O)N[C@H]6C(C)(C)[C@H](Oc7ccc(C#N)c(Cl)c7)C6(C)C)cn5)CC4)C3)c2F)c2cc[nH]c2c1=O` [Compound I-92, N-((1r, 3r)-3-(3-chloro-4-cyanophenoxy)-2,2,4,4-tetramethylcyclobutyl)-2-(4-(1-(2-fluoro-3-(4-(2-hydroxypropan-2-yl)-2-(6-methyl-7-oxo-6,7-dihydro-1H-pyrrolo[2,3-c]pyridin-4-yl)phenoxy)phenyl)azetidin-3-yl)piperazin-1-yl)pyrimidine-5-carboxamide], for which the dissociation constant Kd at BRD4-BD1 and at BRD4-BD2 was 50 to 500 nM in each case. This molecule also came in with a GI50 in test [1] of less than 500 nM.

As to `CCS(=O)(=O)Nc1ccc(Oc2cccc(OCCOC3CCN(c4ncc(C(=O)N[C@H]5C(C)(C)[C@H](Oc6ccc(C#N)c(Cl)c6)C5(C)C)cn4)CC3)c2)c(-c2cn(C)c(=O)c3[nH]ccc23)c1` [Compound I-6], the Kd was greater than 2500 nM at BRD4-BD1 and 50 to 500 nM on BRD4-BD2. Besides, the GI50 in test [1] is less than 500 nM.

In turn, `CN(CC1CCN(c2ncc(C(=O)N[C@H]3C(C)(C)[C@H](Oc4ccc(C#N)c(Cl)c4)C3(C)C)cn2)CC1)C1(c2ccc(Oc3ccc(C(C)(C)O)cc3-c3cn(C)c(=O)c4[nH]ccc34)cc2)COC1` [Compound I-255] displayed a concentration for 50% growth inhibition (GI50) in test [1] of 1500 to 3000 nM.

For the molecule `Cn1cc(-c2cc(C(C)(C)O)ccc2Oc2cccc(N3CC(CC4CCN(c5ncc(C(=O)N[C@H]6C(C)(C)[C@H](Oc7ccc(C#N)c(Cl)c7)C6(C)C)cn5)CC4)C3)c2F)c2cc[nH]c2c1=O` [Compound I-196], the dissociation constant (Kd) is 50 to 500 nM at BRD4-BD1 and less than 50 nM on BRD4-BD2. In test [1], this molecule showed a GI50 greater than 3000 nM. Regarding `CCS(=O)(=O)Nc1ccc(Oc2cccc(N3CC4(CN(CC5CCN(c6ncc(C(=O)N[C@H]7C(C)(C)[C@H](Oc8ccc(C#N)c(Cl)c8)C7(C)C)cn6)CC5)C4)C3)c2)c(-c2cn(C)c(=O)c3[nH]ccc23)c1` [Compound I-35, N-((1r, 3r)-3-(3-chloro-4-cyanophenoxy)-2,2,4,4-tetramethylcyclobutyl)-2-(4-((6-(3-(4-(ethylsulfonamido)-2-(6-methyl-7-oxo-6,7-dihydro-1H-pyrrolo[2,3-c]pyridin-4-yl)phenoxy)phenyl)-2,6-diazaspiro[3.3]heptan-2-yl)methyl)piperidin-1-yl)pyrimidine-5-carboxamide], the GI50 in test [1] was greater than 3000 nM. For the molecule `Cn1cc(-c2cc(C(C)(C)O)ccc2Oc2ccc(N3CC(CN4CC5CC4CN5c4ncc(C(=O)N[C@H]5C(C)(C)[C@H](Oc6ccc(C#N)c(Cl)c6)C5(C)C)cn4)C3)cc2)c2cc[nH]c2c1=O` (some centres unmarked) [Compound I-228], the dissociation constant Kd on BRD4-BD1 and at BRD4-BD2 was less than 50 nM throughout. The molecule further yielded a GI50 in test [1] of less than 500 nM.

`CCS(=O)(=O)Nc1ccc(Oc2cccc(OCCOC3CCN(c4ccc(C(=O)N[C@H]5C(C)(C)[C@H](Oc6ccc(C#N)c(Cl)c6)C5(C)C)cn4)CC3)c2)c(-c2cn(C)c(=O)c3[nH]ccc23)c1` [Compound I-70, N-((1r, 3r)-3-(3-chloro-4-cyanophenoxy)-2,2,4,4-tetramethylcyclobutyl)-6-(4-(2-(3-(4-(ethylsulfonamido)-2-(6-methyl-7-oxo-6,7-dihydro-1H-pyrrolo[2,3-c]pyridin-4-yl)phenoxy)phenoxy)ethoxy)piperidin-1-yl)nicotinamide] showed a concentration for 50% growth inhibition (GI50) in test [1] of less than 500 nM. With `Cn1cc(-c2cc(C(C)(C)O)ccc2Oc2cccc(N3CC(OC4CCN(c5ncc(C(=O)N[C@H]6C(C)(C)[C@H](Oc7ccc(C#N)c(Cl)c7)C6(C)C)cn5)CC4)C3)c2F)c2cc[nH]c2c1=O` [Compound I-190], the values for the Kd at BRD4-BD1 and on BRD4-BD2 were 500 to 2500 nM and 50 to 500 nM, respectively. This molecule returned a GI50 in test [1] of less than 500 nM.

For `Cc1ccc(CCCOC2CCN(c3ncc(C(=O)N[C@H]4C(C)(C)[C@H](Oc5ccc(C#N)c(Cl)c5)C4(C)C)cn3)CC2)c(C)c1Oc1ccc(C(C)(C)O)cc1-c1cn(C)c(=O)c2[nH]ccc12` [Compound I-195], the Kd on BRD4-BD1 and at BRD4-BD2 was greater than 2500 nM in each case. In addition, the GI50 in test [1] was greater than 3000 nM. With `CCS(=O)(=O)Nc1ccc(Oc2ccc(OCC3CCN(c4ncc(C(=O)N[C@H]5C(C)(C)[C@H](Oc6ccc(C#N)c(Cl)c6)C5(C)C)cn4)CC3)cc2)c(-c2cn(C)c(=O)c3[nH]ccc23)c1` [Compound I-138], the Kd on BRD4-BD1 is greater than 2500 nM; at BRD4-BD2 it was 500 to 2500 nM. The GI50 in test [1] was less than 500 nM. Molecule `Cn1cc(-c2cc(C(C)(C)O)ccc2Oc2ccc(N3CC(CC4CN(c5ncc(C(=O)N[C@H]6C(C)(C)[C@H](Oc7ccc(C#N)c(Cl)c7)C6(C)C)cn5)C4)C3)cc2)c2cc[nH]c2c1=O` [Compound I-280] displayed a GI50 in test [1] of less than 500 nM.

In test [1], `CCS(=O)(=O)c1ccc(Oc2ccc(OCC3CCN(c4ncc5c(n4)CN([C@H]4C(C)(C)[C@H](Cc6ccc(C#N)c(Cl)c6)C4(C)C)C5=O)CC3)cc2)c(-c2cn(C)c(=O)c3[nH]ccc23)c1` [Compound I-220] had a GI50 of less than 500 nM. `Cn1cc(-c2cc(C(C)(C)O)ccc2Oc2ccc(OCC3CCN(c4ncc(C(=O)N[C@H]5C(C)(C)[C@H](Oc6ccc(C#N)c(Cl)c6)C5(C)C)cn4)CC3)cc2)c2cc[nH]c2c1=O` [Compound I-202]: the GI50 in test [1] fell in the range of 500 to 1500 nM. With `Cn1cc(-c2cc(C(C)(C)O)ccc2Oc2ccc(OCCN3CCN(c4ncc(C(=O)N[C@H]5C(C)(C)[C@H](Oc6ccc(C#N)c(Cl)c6)C5(C)C)cn4)CC3)cc2)c2cc[nH]c2c1=O` [Compound I-204], the GI50 in test [1] is 500 to 1500 nM. In test [1], `Cn1cc(-c2cc(C(C)(C)O)ccc2Oc2ccc(N3CC(CC4CCN(c5ncc(C(=O)N[C@H]6C(C)(C)[C@H](Oc7ccc(C#N)c(Cl)c7)C6(C)C)cn5)CC4)C3)cc2)c2cc[nH]c2c1=O` [Compound I-232] returned a GI50 of 500 to 1500 nM. Molecule `Cn1cc(-c2cc(C(C)(C)O)ccc2Oc2ccc(N3CC(OC4CCN(c5ncc(C(=O)N[C@H]6C(C)(C)[C@H](Oc7ccc(C#N)c(Cl)c7)C6(C)C)cn5)CC4)C3)cc2)c2cc[nH]c2c1=O` [Compound I-219] returned a 50% growth inhibitory concentration (GI50) in test [1] greater than 3000 nM. On the same count and under the same terms, then `CCS(=O)(=O)Nc1ccc(Oc2cccc(OC3CC(C4CCN(c5ncc(C(=O)N[C@H]6C(C)(C)[C@H](Oc7ccc(C#N)c(Cl)c7)C6(C)C)cn5)CC4)C3)c2)c(-c2cn(C)c(=O)c3[nH]ccc23)c1` (some centres unmarked) [Compound I-104], with greater than 3000 nM; and `Cn1cc(-c2cc(C(C)(C)O)ccc2Oc2ccc(CCCC3CC4(C3)CN(c3ncc(C(=O)N[C@H]5C(C)(C)[C@H](Oc6ccc(C#N)c(Cl)c6)C5(C)C)cn3)C4)cc2)c2cc[nH]c2c1=O` [Compound I-268], with less than 500 nM; and `CCS(=O)(=O)Nc1ccc(Oc2cccc(OCCOC3CCN(c4cnc(C(=O)N[C@H]5C(C)(C)[C@H](Oc6ccc(C#N)c(Cl)c6)C5(C)C)cn4)CC3)c2)c(-c2cn(C)c(=O)c3[nH]ccc23)c1` [Compound I-71, N-((1r, 3r)-3-(3-chloro-4-cyanophenoxy)-2,2,4,4-tetramethylcyclobutyl)-5-(4-(2-(3-(4-(ethylsulfonamido)-2-(6-methyl-7-oxo-6,7-dihydro-1H-pyrrolo[2,3-c]pyridin-4-yl)phenoxy)phenoxy)ethoxy)piperidin-1-yl)pyrazine-2-carboxamide], with less than 500 nM. Turning to `Cn1cc(-c2cc(C(C)(C)O)ccc2Oc2ccc(CC3CCN(c4ncc(C(=O)N[C@H]5C(C)(C)[C@H](Oc6ccc(C#N)c(Cl)c6)C5(C)C)cn4)CC3)cc2)c2cc[nH]c2c1=O` [Compound I-201], the GI50 in test [1] lay within 500 to 1500 nM. In the case of `CC(C)N(C1CCN(c2ncc(C(=O)N[C@H]3C(C)(C)[C@H](Oc4ccc(C#N)c(Cl)c4)C3(C)C)cn2)CC1)C1CN(c2cccc(Oc3ccc(C(C)(C)O)cc3-c3cn(C)c(=O)c4[nH]ccc34)c2F)C1` [Compound I-221], the 50% growth inhibitory concentration (GI50) in test [1] was 1500 to 3000 nM. As for `CN(C1CCN(c2ncc(C(=O)N[C@H]3C(C)(C)[C@H](Oc4ccc(C#N)c(Cl)c4)C3(C)C)cn2)CC1)C1CN(c2ccc(Oc3ccc(C(C)(C)O)cc3-c3cn(C)c(=O)c4[nH]ccc34)cc2)C1` [Compound I-208], the GI50 in test [1] was less than 500 nM. Turning to `CN(C1CN(c2ccc(Oc3ccc(C(C)(C)O)cc3-c3cn(C)c(=O)c4[nH]ccc34)cc2)C1)C1CN(c2ncc(C(=O)N[C@H]3C(C)(C)[C@H](Oc4ccc(C#N)c(Cl)c4)C3(C)C)cn2)C1` [Compound I-238], the GI50 in test [1] is less than 500 nM.

The values are drawn from US20250388605A1, “HETEROBIFUNCTIONAL COMPOUNDS AND METHODS OF TREATING DISEASE” (Halda Therapeutics OpCo, Inc., priority 2022, published 2025).
